This is an account of results in patent US6046238A, “Method for treating or preventing the spread of acne vulgaris” (TriStrata, Inc., priority 1999, dated 2000).

“Also recorded” adds a separate entry of the source.

The nature of test [1]: topical treatment of nail infections. As to conditions: non-synergistic composition, twice daily. The class given is in vivo, human. The text has this: The participating subjects in the present study were instructed to apply twice daily the composition containing phenyl 2-acetoxyethanoic acid or diphenyl 2-acetoxyethanoic acid with or without clotrimazole as an additional antimicrobial agent.
In order to determine the antimicrobial effect of an aryl 2-acetoxyethanoicacid, a standard test method of Minimum Inhibitory Concentration (MIC) against the growth of 10 bacteria was used. To determine a prophylactic effect against the development of, as well as a topical effect in the treatment of, body foul door, eleven human subjects participated in this study. […] Scientific and test results are overviewed as follows.

A short description of test [2]: topical treatment of folliculitis and perifolliculitis. Type of test: in vivo, human. Conditions: 0.9%, twice daily; nine patients. As for the experimental part: Nine patients having various degrees of folliculitis and perifolliculitis participated in this study. A test composition containing 0.9% phenyl 2-acetoxyethanoic acid or diphenyl 2-acetoxyethanoic acid was prepared by dissolving 0.9 g compound in 79.1 ml 2-propanol, 15 ml butane-1,3-diol and 5 ml nonoxynol-6. The composition was packaged in one-ounce bottles. The patients were instructed to apply the test composition twice daily on the infected skin lesions and involved areas. Topical applications were continued up to 8 weeks.

Test [3] is described as follows: prophylactic effect in preventing the development of axillary foul odor. Type of test: in vivo, human. Conditions: Example 5; 0.5% solution, topical; one person; up to 24 hours. Here is the method: A typical test for prophylactic effect in preventing the development of axillary foul odor was carried out as follows. A test composition was prepared by dissolving 0.5 g of phenyl 2-acetoxyethanoic acid or diphenyl 2-acetoxyethanoic acid in 70 ml of ethanol and 30 ml of propylene glycol. The control vehicle was prepared by mixing 70 ml of ethanol and 30 ml of propylene glycol. A human subject was instructed to take a shower in the morning using ordinary soap to clean the body surfaces. After the skin was dried, the test composition was topically applied to the left underarm area only. The vehicle control was topically applied to the right underarm area. Both underarm areas were monitored by the subject and at least one other person approximately every 8 hours to determine whether the test composition had any prophylactic effect in preventing the development of underarm foul odor in the left axilla as compared to the vehicle alone on the right control armpit.
Presence or substantial absence of foul odor, detected by smell, was adopted as the criteria for ineffectiveness or effectiveness of the test composition.
A total of seven subjects (four females; three males) participated in several studies. Most of these subjects could not use existing commercial products of antiperspirants or deodorants because of severe irritation after topical application. […]

Test [4] can be described thus: reversal of corticosteroid unresponsiveness in psoriasis. The class given is in vivo, human. Conditions: added once daily to corticosteroid twice daily; seven patients. As for the experimental part:
To determine the therapeutic responsive effect of an aryl 2-acetoxyethanoicacid against psoriasis seven patient participated in this study. A test composition was prepared by dissolving 1 g phenyl 2-acetoxyethanoic acid or diphenyl 2-acetoxyethanoic acid in 2 ml ethanol. The solution thus obtained was mixed with 60 g petrolatum and 37 g mineral oil. The anhydrous ointment thus formulated was packaged in one-ounce jars.
When the drug unresponsiveness to a corticosteroid occurred, the participating patients were instructed to apply in addition the test composition once daily to the lesions on the left side of the body only. Topical applications of the corticosteroid were continued twice daily to both sides of the body. […] While psoriatic lesions on the right side of the body remained unresponsive to the topical corticosteroid, the lesions on the left side started to clear after 3 to 4 weeks of additional topical application with the composition containing an aryl 2-acetoxyethanoic acid.
At this time the patients were instructed to shift the additional topical application to the lesions on the right side instead of the left side of the body. The psoriatic lesions on the right side of the body began to clear after 3 to 4 weeks of additional topical application with the composition containing aryl 2-acetoxyethanoic acid.

A short description of test [5]: axillary antiodor effectiveness (treatment). Type of test: in vivo, human. As to conditions: 0.5%. The text has this: In another study the subjects were instructed not to take a shower in the morning. After the foul odor developed in both axillae, the subjects were instructed to apply the test composition containing 0.5% phenyl 2-acetoxyethanoic acid or diphenyl 2-acetoxyethanoic acid on the left underarm area and the control vehicle on the right underarm area. Topical applications were made once daily for several days.
Usually the left underarm ceased emanating any detectable foul odor after 1 day of topical use. The subjects were instructed at this time to apply the test composition containing 0.5% phenyl 2-acetoxyethanoic acid or diphenyl 2-acetoxyethanoic acid on the right underarm area also. Topical applications were made once daily for several days. The right axilla ceased to emanate any detectable foul odor after 1 to 2 days of topical use.

The nature of test [6]: treatment of oral infections. Type of test: in vivo, human. As to conditions: 2% composition diluted to 0.1%; oral rinse twice daily. Here is the method:
Compositions for treatment of oral infections may contain an aryl 2-acetoxyethanoic acid as the only active ingredient. In this case a phenyl 2-acetoxyethanoic acid or diphenyl 2-acetoxyethanoic acid 2% composition was formulated by dissolving the active ingredient 2 g in ethanol 78 ml and propylene glycol 20 ml. Before use, this composition was diluted to 0.1% with water by mixing one part of the composition with 19 parts of water. The treatment involves oral rinse, wash and gargle by keeping the diluted composition inside the oral cavity for a few minutes, and then spit out. Such procedure may be repeated twice daily for several days until the infection is eradicated usually within 5-7 days.

For test [7] the following is noted: caused by microbial infections including P. acnes; salicylic acid alone; cited from earlier work.

`CC(=O)OC(C(=O)O)(c1ccccc1)c1ccccc1` [diphenyl 2-acetoxyethanoic acid]: the “disappearance of nail infections” value in test [1] was “usually disappeared within one to several months”. In addition, in test [2], the “deeper lesions of papules” value is recorded as “eradicated or substantially improved after 4 to 8 weeks of topical applications”; the “superficial folliculitis and perifolliculitis lesions” value is on record as “eradicated or substantially improved after a few days of topical applications”. Besides, the “prevention of axillary foul odor (left underarm)” value in test [3] was “did not produce any detectable odor, even after 24 hours; also recorded: substantially effective in preventing the development of axillary foul odor”. For the same compound, in test [4], the “onset of improvement of psoriatic lesions, left side” value is “began to improve after one week”. For the same compound, the “overall axillary antiodor effectiveness” value in test [5] (topical) was “topically effective in eradicating the axillary foul odor”. Besides, in test [5] (continued, once daily for several days), the “left axilla on continued use” value is recorded as “continued to maintain the condition free of any offensive foul odor”. Also, the “time after which left underarm usually ceased emanating any detectable foul odor” value in test [5] (no-shower study, left side) worked out at 1 days. In test [5] (no-shower study, once daily), the “intensity of foul odor, left underarm” value is given as “diminished in intensity of foul odor after one to two days of topical application”. In test [5] (Example 6, once daily, one person, left side), the “time after which left underarm ceased emanating any detectable foul odor” value stood at 1 days. Besides, the “time after which right axilla ceased to emanate any detectable foul odor” value in test [5] (Example 6, right side, formerly vehicle) came to 1 days. Moreover, the “time within which oral infection is usually eradicated” value in test [6] lay in the range of 5 to 7 days.

Consider `O=C(O)c1ccccc1O` [salicylic acid], for which the “effect against acne lesions associated with whiteheads” value in test [7] is “not therapeutically effective against acne lesions associated with whiteheads”.
